Measurements: US20240261418A1, “SOS1 DEGRADING AGENT AND PREPARATION METHOD THEREFOR AND APPLICATION THEREOF” (SHANGHAI LEADINGTAC PHARMACEUTICAL CO. LTD., priority 2021, published 2024)
pIC50: −log10 of the molar value.

Key:
KRAS-G12C/SOS1 = biological target: T1, KRAS-G12C/SOS1 (Homo sapiens, UniProt Q07889); assay: KRAS-G12C/SOS1 binding assay (HTRF); details: inhibition of KRAS-G12C/SOS1 binding
T1 construct: purchased Cisbio 63ADK000CB16PEG
T1 sequence (Q07889 1-1333): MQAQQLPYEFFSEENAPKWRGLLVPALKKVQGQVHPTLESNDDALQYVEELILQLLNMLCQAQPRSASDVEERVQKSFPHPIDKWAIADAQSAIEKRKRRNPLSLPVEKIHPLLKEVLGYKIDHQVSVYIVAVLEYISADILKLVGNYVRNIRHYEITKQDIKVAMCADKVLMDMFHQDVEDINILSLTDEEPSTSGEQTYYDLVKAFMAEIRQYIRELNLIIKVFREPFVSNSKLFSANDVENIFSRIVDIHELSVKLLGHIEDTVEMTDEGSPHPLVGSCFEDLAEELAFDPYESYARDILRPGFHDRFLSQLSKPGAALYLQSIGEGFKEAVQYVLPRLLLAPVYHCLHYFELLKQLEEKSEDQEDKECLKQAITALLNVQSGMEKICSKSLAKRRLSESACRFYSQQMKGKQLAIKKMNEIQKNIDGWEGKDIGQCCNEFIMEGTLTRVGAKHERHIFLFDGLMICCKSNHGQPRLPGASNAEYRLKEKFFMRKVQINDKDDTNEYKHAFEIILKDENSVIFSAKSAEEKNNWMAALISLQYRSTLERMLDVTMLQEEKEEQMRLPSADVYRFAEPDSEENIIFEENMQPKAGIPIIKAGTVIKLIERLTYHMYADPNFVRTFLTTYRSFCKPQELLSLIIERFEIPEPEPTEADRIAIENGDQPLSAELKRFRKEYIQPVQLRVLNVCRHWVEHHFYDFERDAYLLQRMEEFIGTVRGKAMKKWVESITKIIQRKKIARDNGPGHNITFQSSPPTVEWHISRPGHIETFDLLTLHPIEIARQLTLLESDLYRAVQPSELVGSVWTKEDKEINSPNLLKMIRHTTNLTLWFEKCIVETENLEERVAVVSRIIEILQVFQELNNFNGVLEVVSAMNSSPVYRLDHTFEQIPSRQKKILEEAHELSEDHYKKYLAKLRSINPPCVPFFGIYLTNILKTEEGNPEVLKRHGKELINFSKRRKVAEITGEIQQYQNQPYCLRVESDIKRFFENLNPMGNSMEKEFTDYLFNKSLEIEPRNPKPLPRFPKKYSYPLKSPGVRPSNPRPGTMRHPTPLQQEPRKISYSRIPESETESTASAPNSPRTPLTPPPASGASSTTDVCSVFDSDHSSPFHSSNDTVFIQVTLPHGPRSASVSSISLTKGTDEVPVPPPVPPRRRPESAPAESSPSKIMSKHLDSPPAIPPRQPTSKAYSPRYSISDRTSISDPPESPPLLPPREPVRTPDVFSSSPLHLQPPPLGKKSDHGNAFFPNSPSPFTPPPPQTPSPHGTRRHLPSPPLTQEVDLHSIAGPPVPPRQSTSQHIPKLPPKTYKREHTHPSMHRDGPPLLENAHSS
Procedure: Test Example 1: KRAS-G12C/SOS1 Binding Assay
The following method was used to determine the extent of inhibition of KRAS-G12C/SOS1 binding by the preferred compounds of the present invention under in vitro conditions. In this method, the competitive inhibition of KRAS-G12C/SOS1 binding by the preferred compounds was assayed by the homogeneous time-resolved fluorescence (HTRF) technology using the KRAS-G12C/SOS1 binding assay kit (Cisbio, 63ADK000CB16PEG).
The experimental procedures were as follows (refer to the kit instructions for details): the compounds of the present invention were each firstly dissolved in DMSO at a concentration of 20 mM, and then diluted in an equal gradient with a buffer in the kit, so that the final concentrations of the test compounds in the reaction system were in a range of 10000 nM-0.04 nM, and the final concentration of DMSO was 0.5%. 2 μL of the compounds were each incubated with 4 μL of 1×Tag1-SOS1, 4 μL of 1×Tag2-KRAS-G12C (containing 10 μM guanosine triphosphate, GTP) at 25° C. for 15 min. Then 5 μL of 1×Anti-Tag1-Tb3+ and 5 μL of 1×Anti-Tag2-XL665 were added to the reaction system, and the mixture was incubated on ice for 3 h. After the incubation, the fluorescence intensity of each well was measured at the excitation wavelength of 337 nm, the fluorescence intensity of each well was read at the emission wavelengths of 620 nm and 665 nm on a microplate reader EnVision (PerkinElmer, 2105) in an HTRF mode, and the Ratio value was calculated by the formula Ratio=(665 nm/620 nm)×[…]. The inhibition rates of the compounds at each concentration were calculated by comparing the fluorescence intensity ratio with that of the control group, and then nonlinear curve fitting was performed by GraphPad Prism 8 in the logarithmic concentration-inhibition rate to obtain the IC50 values of the compounds, as shown in Table 1.

[1] = test system: KRAS G12V mutant human lung adenocarcinoma cells NCI-H441; assay: 3D cell proliferation inhibition assay, NCI-H441; format: cell-based; details: NCI-H441, 168 h, 7 days, CTG
Excerpt: (§1) Test Example 4: 3D Cell Proliferation Inhibition Assay
(§2) The inhibitory effect of the compounds on the proliferation of 3D cells was investigated on KRAS G12C mutant human non-small cell lung cancer cells NCI-H358 (ATCC or Stem Cell Bank, Chinese Academy of Sciences), KRAS G12D mutant human metastatic pancreatic adenocarcinoma cells AsPC-1 (ATCC), KRAS G12V mutant human lung adenocarcinoma cells NCI-H441 (ATCC), and KRAS G13D mutant human colorectal adenocarcinoma epithelial cells DLD-1 (ATCC). The specific procedures were as follows:
(§3) 200 nL of compound solution diluted in a gradient was added to corresponding microwells of a 384-well low-adsorption microwell plate (Corning, 3657) using an Echo sonic pipetting system (Labcyte, Echo 550), so that the final concentration of the test compound in the reaction system was in a range of 20000 nM-0.008 nM. Then 40 μL of cells at a certain density were added to the corresponding microplate. In addition to test wells for the test compounds, both a DMSO control well and a medium control well were set, with the DMSO control well containing DMSO and cells and the medium well containing only medium. […] The plate was incubated at room temperature for 30 min and read on a microplate reader EnVision using the chemiluminescence program. […]

[2] = test system: KRAS G13D mutant human colorectal adenocarcinoma epithelial cells DLD-1; assay: 3D cell proliferation inhibition assay, DLD-1; format: cell-based; details: DLD-1, 168 h, 7 days, CTG
Excerpt: as §1, §2, §3

SMILES | pIC50 (KRAS-G12C/SOS1) | pIC50 [1] | pIC50 [2]
COc1cc2nc(C)nc(N[C@H](C)c3cc(-c4c(Cl)cccc4CN(C)C)cs3)c2cc1[C@H]1CC[C@H](C(=O)N2CCN(CC3CCC4(CC3)CCN(C(=O)c3ccc(Cl)c(N5CCC(=O)NC5=O)c3)CC4)CC2)CC1 [Example 1, 1-(2-chloro-5-(9-((4-((1R,4R)-4-(4-(((R)-1-(4-(2-chloro-6-((dimethylamino)methyl)phenyl)thien-2-yl)ethyl)amino)-7-methoxy-2-methylquinazolin-6-yl)cyclohexane-1-carbonyl)piperazin-1-yl)methyl)-3-azaspiro[5.5]undecane-3-carbonyl)phenyl)dihydropyrimidine-2,4(1H,3H)-dione] | ≥ 7.82 | 7.00 to 7.30 | 7.30 to 7.52
COc1cc2nc(C)nc(N[C@H](C)c3cc(-c4c(Cl)cccc4CN(C)C)cs3)c2cc1[C@H]1CC[C@H](C(=O)N2CCC(CCOCC3CCN(C(=O)c4ccc(Cl)c(N5CCC(=O)NC5=O)c4)CC3)CC2)CC1 [Example 5, 1-(2-chloro-5-(4-((2-(1-((1R,4R)-4-(4-(((R)-1-(4-(2-chloro-6-((dimethylamino)methyl)phenyl)thien-2-yl)ethyl)amino)-7-methoxy-2-methylquinazolin-6-yl)cyclohexane-1-carbonyl)piperidin-4-yl)ethoxy)methyl)piperidine-1-carbonyl)phenyl)dihydropyrimidine-2,4(1H,3H)-dione] | ≥ 7.82 | ≥ 7.82 | 7.00 to 7.30
